Key:
Assay type in all cases: in vivo, rat
[1] = system: genes for cytokines and their receptors; test: cDNA microarray analysis of PTH-regulated genes in proximal tibial metaphysis; conditions: for genes regulated (of 8500 rat genes, Affymetrix): p<0.05
Description: Induction of parathyroid bone disease. Three month-old female Sprague-Dawley rats (Harlan Sprague-Dawley, Inc., Indianapolis, Ind.) were randomly divided into 3 groups, with 5 rats per group. In group 1 (pulsatile or intermittent PTH), each rat received 80 μg/kg/day human PTH (1-34) (hPTH) in vehicle (150 mM NaCl, 1 mM HCl and 2% heat-inactivated rat serum) by subcutaneous (s.c.) injection once daily for 7 days. In group 2 (vehicle), an osmotic pump (Alza Corp., Mountainview, Calif.) that delivered vehicle alone at a rate of 1 μl/hr for 7 days was implanted in each rat. In group 3 (continuous PTH), an osmotic pump that delivered 40 μg/kg/day hPTH at a rate of 1 μl/hr for 7 days was implanted in each rat. On day 8, all rats were anesthetized with ketamine (50 mg/kg): xylazine HCl (5 mg/kg) and sacrificed by decapitation. Both tibiae were removed from each rat. Right tibiae were fixed by immersion in 70% ethanol then processed for bone histology to verify the appearance of peritrabecular fibrosis. Left tibiae were frozen in liquid N2 and stored at −80° C. until processed for RNA isolation.
Isolation of RNA. Frozen proximal tibial metaphyses were individually homogenized in guanidine isothiocyanate using a Spex freezer mill (Industries, Inc., Edison, N.J.). Total RNA was extracted from the homogenate using a modified organic solvent method. See Chomczynski et al., Anal. Biochem., 162:156-159 (1987). Isolated RNA yields were determined spectrophotometrically at 260 nm using standard methods.
cDNA microarray analysis. cDNA probes were generated by reverse transcription (Superscript II, Life Technologies, Rockville, Md.) using 1 μg total RNA isolated from the proximal tibial metaphysis of rats in groups 1, 2, and 3. First-strand cDNA probes were primed by the addition of oligo dT and subsequently labeled with [α-^33P]dCTP (ICN Radiochemicals Costa Mesa, Calif.). The labeled probes then were purified by passage through a Sephadex G-50 DNA Grade Column (Amersham Pharmacia Biotech AB, Uppsala, Sweden). The purified probes were hybridized to a rat genefilter microarray containing 5531 genes (GF 300; Research Genetics, Huntsville, Ala.). according to the manufacturer's recommended protocol. A micro-array system from Affymetrix, which contains 8500 genes, also was used. After hybridization, the array was washed and wrapped with plastic wrap before placing in a phosphor imaging cassette containing a Cyclone Storage Phosphor Screen (Packard, Downers Groves, Ill.). After 24 hours, the screen was imaged and the resulting images analyzed using Pathways 2.01 software to compare the signal intensities of spots.
Candidate genes associated with peritrabecular fibrosis were identified with cDNA microarrays containing 5531 or 8500 genes as described in Example 1. Approximately 14% of the total genes measured were differentially expressed by at least 2.5-fold between pulsatile and continuous PTH-treated groups. […] Of the regulated genes, 158 were unique to intermittent administration of PTH and 759 to continuous administration of PTH. An additional 158 genes were common to both treatments.
The list of candidate genes was examined to determine if any of the genes encoded growth factors. More specifically, it was determined if the differentially expressed genes were growth factors produced on or near bone surfaces, were chemotactic to fibroblasts, were able to stimulate fibroblast proliferation, or could induce bone resorption. One of the candidate genes, PDGF, a known mitogenic and chemotactic factor for fibroblasts, met all these criteria.

[2] = system: osteoblasts and peritrabecular fibroblasts; test: 3H-thymidine autoradiography; conditions: continuous PTH 1 week with continuous 3H-thymidine infusion, rats
Description: ^3H-thymidine autoradiography was performed to determine the role of cell proliferation in contributing to the increases in osteoblasts and fibroblasts following continuous administration of PTH. ^3H-thymidine was infused continuously for the entire 1-week duration of PTH treatment in order to label all proliferating cells. […] Thus, it seems that PTH-induced osteoblasts and fibroblasts originate by different cellular pathways.

Serum chemistry and PTH = conditions: rats
Description: Treatment protocol. Three month-old female Sprague-Dawley rats were divided into 4 groups. In group 1 (n=9), osmotic pumps that delivered vehicle alone at a rate of 1 μl/hr for 7 days were implanted in each rat. […] In groups 3 and 4 (n=8 and 10, respectively), osmotic pumps were implanted in each rat that delivered 40 μg/kg/day hPTH at a rate of 1 μl/hr for 7 days. […] Tetracycline (20 mg/kg, Sigma Chemical Co., St. Louis, Mo.) and calcein (20 mg/kg, Sigma) fluorochrome labels were injected at the base of the tail on day 0 (tetracycline) and day 6 (calcein). On day 8, all rats were anesthetized and blood was collected by cardiac puncture. The blood samples were used to determine serum chemistry and PTH levels. Following blood collection, the rats were sacrificed by cervical dislocation, and tibiae were surgically removed and fixed in 70% ethanol for bone histomorphometry.
Serum chemistry and PTH. Total serum calcium, phosphate, and magnesium levels were measured in rat blood samples by Central Clinical Laboratory Research at the Mayo Clinic using automated procedures. Serum PTH was measured using an immunoradiometric assay for rat PTH (Immunotopics International, LLC, San Clementa, Calif.) that has approximately 100% cross-reactivity to human PTH.
Serum and bone samples were collected after 7 days and analyzed.

[3] = system: PDGF-A positive mast cells; test: Immunohistochemistry for PDGF-A on bone samples
[4] = continuous PTH, rat proximal tibial metaphysis, gene microarray
[5] = continuous administration of PTH
[6] = intermittent administration of PTH
[7] = day 8, trapidil 40 mg/kg/day s.c. 7 days, hPTH 40 μg/kg/day continuous by osmotic pump 7 days, mean ± SEM

In the case of human PTH (1-34), the “total genes differentially expressed by at least […] between pulsatile and continuous PTH-treated groups” value ([1]; cDNA microarrays) is reported as “Approximately 14%”, the “BMP-1 gene expression, Fold Change” value [1, 4] is reported as 1.3 fold and the “BMP-3 gene expression, Fold Change” value [1, 4] is reported as 19 fold. The “BMP-6 gene expression, Fold Change” value [1, 4] was 1.6 fold, the “COX2 gene expression, Fold Change” value [1, 4] was 1.8 fold and the “FGF gene expression, Fold Change” value [1, 4] was 5.1 fold. The “FGF receptor-1 gene expression, Fold Change” value [1, 4] was 2.7 fold, the “IL-6 receptor gene expression, Fold Change” value [1, 4] was −1.2 fold and the “IL-12p40 gene expression, Fold Change” value [1, 4] was 1.3 fold. The “PGE2 receptor EP3 gene expression, Fold Change” value [1, 4] was 1.7 fold, the “PTH receptor gene expression, Fold Change” value [1, 4] was 3.8 fold and the “TGF-β1 gene expression, Fold Change” value [1, 4] was 1.5 fold. For the same substance, the “TGF-β3 gene expression, Fold Change” value [1, 4] was 1.9 fold, the “PDGF-A gene expression, Fold Change” value ([1]; continuous PTH, rat proximal tibial metaphysis, gene microarray, n = 5) was 85 fold and the “number of regulated genes unique to the regimen” value [1, 5] was 759. The “genes regulated (of 8500 rat genes, Affymetrix)” value [1, 5] was 10.4%, the “number of regulated genes unique to the regimen” value [1, 6] was 158 and the “genes regulated (of 8500 rat genes, Affymetrix)” value [1, 6] was 3.6%. For the same substance, the “number of regulated genes common to both treatments” value ([1]; intermittent and continuous PTH) was 158, the “3H-thymidine labeling of PTH-induced osteoblasts” value [2] was “unlabeled” and the “3H-thymidine labeling of most of the peritrabecular fibroblasts induced by PTH” value [2] was “labeled”. For the same substance, the “serum chemistry effect of continuous PTH” value (Serum chemistry and PTH; continuous PTH 40 μg/kg/day 7 days) was “induced hypercalcemia and hyperparathyroidism”, the “Serum Calcium” value (Serum chemistry and PTH; [7]) was 11.65 ± 0.28^ab mg/dl and the “Serum Magnesium” value (Serum chemistry and PTH; [7]) was 2.49 ± 0.04 mg/dL. The “Serum PTH” value (Serum chemistry and PTH; [7]) was 98.27 ± 11.12^ab pg/ml, the “Serum Phosphorus” value (Serum chemistry and PTH; [7]) was 7.95 ± 0.48 mg/dL and the “mast cell staining for PDGF-A peptide” value ([3]; PTH-treated rats) was “stained intensely”. The “number of PDGF-A positive mast cells” value ([3]; PTH-treated vs vehicle, PTH+trapidil treated) was “increased”.

Source: patent publication US20030109537A1, “Methods and materials for treating bone conditions” (priority 2001, published 2003)
